Results from PubChem BioAssay (NCI).
“And” between values parts separate entries of the source, which are not always exact repeats. Identical values can stand only once.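 Values below derive from 48-hour exposures of cells grown in 96-well plates, with endpoints linearly interpolated between the two concentrations bracketing the appropriate inhibition level. GI50 = concentration required for 50% inhibition of growth. TGI denotes the concentration required for complete inhibition of growth.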 Where a SMILES comes first, the peptide text is derived from it.

Legend:
Assay in all cases: inhibition of tumour cell growth, NCI panel, 48 h
[1] = tested on: U251 CNS
[2] = tested on: NCI-H460 lung
[3] = tested on: OVCAR-4 ovarian
[4] = tested on: A549 NSCLC
[5] = tested on: TK-10 renal
[6] = tested on: HCT-116 colon
[7] = tested on: K-562 leukemia
[8] = tested on: MCF7 breast
[9] = tested on: RPMI-8226 leukemia
[10] = tested on: SF-295 CNS
[11] = tested on: MALME-3M melanoma
[12] = tested on: HOP-92 NSCLC

| SMILES | TGI [1] | TGI [2] | TGI [3] | TGI [4] | TGI [5] | TGI [6] | TGI [7] | TGI [8] | TGI [9] | TGI [10] | TGI [11] | TGI [12] | GI50 [1] | GI50 [2] | GI50 [3] | GI50 [7] | GI50 [8] | GI50 [9] | GI50 [11] |
| --- | --- | --- | --- | --- | --- | --- | --- | --- | --- | --- | --- | --- | --- | --- | --- | --- | --- | --- | --- |
| CCC(C)C(NC(=O)C(CCCCN)NC(=O)C(NC(=O)C(CCC(N)=O)NC(=O)C(N)CCCNC(=N)N)C(C)CC)C(=O)NC(Cc1c[nH]c2ccccc12)C(=O)NC(Cc1ccccc1)C(=O)NC(CCC(N)=O)C(=O)NC(CC(N)=O)C(=O)NC(CCCNC(=N)N)C(=O)NC(CCCNC(=N)N)C(=O)NC(CCSC)C(=O)NC(CCCCN)C(=O)NC(Cc1c[nH]c2ccccc12)C(=O)NC(CCCCN)C(=O)NC(CCCCN)C(=O)N1CCCC1C(=O)NC(C)C(=O)NC(CCCCN)C(=O)NC(CCCNC(=N)N)C(=O)NC(CCCCN)C(=O)NC(CC(C)C)C(=O)NC(Cc1ccccc1)C(=O)NCC(=O)O (stereo not given) (H-RQIKIWFQNRRMKWKKPAKRKLFG-OH; configuration not given here) | > 25 µM | > 25 µM | > 25 µM | > 25 µM | > 25 µM | > 25 µM | > 25 µM | > 25 µM | 15.1 µM | > 25 µM | 18.3 µM | > 25 µM | – | – | – | – | – | – | – |
| CCCCCC(C[N+]1(C)CCOCC1)C(=O)/C=C/c1ccccc1 (stereo not given) | 21.2 µM | > 61.5 µM | 15.9 µM | 62 µM | 37.8 µM | 11.7 µM | 18 µM | – | 8.59 µM | 21.6 µM | 32 µM | 35.3 µM | – | – | – | – | – | – | – |
| CN(C)C(=O)OCOC(=O)N(C)C | > 100 µM | > 100 µM | > 100 µM | > 100 µM | – | > 100 µM | > 100 µM | > 100 µM | > 100 µM | > 100 µM | > 100 µM | > 100 µM | – | – | – | – | – | – | – |
| CCCCN1C=CN2c3nc4cc(C)c(C)cc4n3C(C(=O)OC)=C(C(=O)OC)C12 (stereo not given) | > 100 µM | > 100 µM | > 100 µM | > 100 µM | > 100 µM | > 100 µM | > 100 µM | – | > 100 µM | > 100 µM | > 100 µM | > 100 µM | – | – | – | – | – | – | – |
| COC(=O)C1OC(Oc2cc(O)c3c(=O)cc(-c4ccc(O)cc4)oc3c2)C(O)C(O)C1O (stereo not given) | > 100 µM | > 100 µM | > 100 µM | > 100 µM | – | > 100 µM | > 100 µM | > 100 µM | > 100 µM | > 100 µM | > 100 µM | > 100 µM | – | – | – | – | – | – | – |
| OCC1OC(n2cnc3c2NC=NC[C@H]3O)C(O)C1O (stereo not given in full) | > 450 µM | > 450 µM | > 450 µM | > 450 µM | – | > 450 µM | > 284 µM | > 450 µM | > 450 µM | > 450 µM | > 450 µM | > 414 µM | – | – | – | – | – | – | – |
| CN(C)C(=O)NCCN1CCCCCc2ccccc21 | > 100 µM | > 100 µM | > 100 µM | > 100 µM | > 100 µM | > 100 µM | > 100 µM | > 100 µM | > 100 µM | > 100 µM | > 100 µM | > 100 µM | – | – | – | – | – | – | – |
| CCOC(=O)C(N)CSC(=O)NC (stereo not given) | 347 µM | 397 µM | 481 µM | 836 µM | 566 µM | 321 µM | 284 µM | 425 µM | 214 µM | 592 µM | 306 µM | 341 µM | – | – | – | – | – | – | – |
| CC1=CC(C2/C(=N/O)C=C(C)CC2(C)C)C(O)C(C)(C)C1 (stereo not given) | 29.6 µM | 43.1 µM | 29.8 µM | 29.6 µM | 35.2 µM | 29.3 µM | 32.1 µM | 30.4 µM | 33.6 µM | 32.9 µM | – | 27.5 µM | – | – | – | – | – | – | – |
| C=C1C(=O)O[C@H]2[C@H]1[C@@H](OC(=O)C=C(C)C)CC1=C[C@@H](C[C@@]3(C)O[C@@H]23)OC1=O | 32.2 µM and 42.5 µM | 5.83 µM and 31.8 µM | 20.6 µM and 13.7 µM | 63 µM and 39.7 µM | – | 16.5 µM | 50.2 µM and 9.4 µM | 4.39 µM and 6.93 µM | 67.2 µM and 7.16 µM | 28.4 µM | 22.6 µM and 8.1 µM | 4.15 µM | 24 µM | 2.27 µM and 14.9 µM | 4.55 µM | 1.02 µM and 3.16 µM | 0.603 µM and 2.59 µM | 0.81 µM and 2.61 µM | 3.22 µM |
